Patent US8513226B2, “Simultaneous method for the preparation of a mixture of 3-acetoxy-17-acetamido-16-formyl-androst-5,17-diene and 3-acetoxy-2'-chloro-5-androsteno[17,16-b]pyridine” (Council of Scientific and Industrial Research, priority 2008, dated 2013)
“Also recorded” adds a separate entry of the source. Read-outs that look alike come from different tables or passages of the source. Each block holds one compound with its values, some of them ahead of it.

Assays:
pylorus-ligated rats = test: Gastric secretion in pylorus-ligated rats; assay type: in vivo, rat
Procedure: The pylorus of each rat was ligated under anesthesia according to the method of Shay et. al. (H Shay, S A Komarov, S S Fels, D Merange, M Grunstein & H Siplet, Gastroenterol. 1945, 4, 43). Each of the animals were then allowed to stand abstained from food and water in a cage. After 4 h, the animals were sacrificed and the stomachs were removed. The gastric contents were collected and centrifuged, and the secretory volume, pH and acid content of the supernatants were measured. The acid content was measured by titrating to pH 7.0 with 0.01 N NaOH using an autotitrator (Metrohm). The total acid content of the drug treated groups was compared to that of control groups, presented graphically in FIG. 5 and thereby, the reduction percentage of acid content was calculated. Compound 4 was suspended in 0.4% HPMC and administered orally at graded dose (10, 20, 50 and 100 mg/kg dose) in different groups 45 min before the ligation. In the control group, the vehicle (0.4% HPMC) was administered.

[1] = test system: rabbit gastric parietal cells; test: Basal acid secretion (aminopyrine uptake) in gastric parietal cells; assay type: cell-based; details: Oryctolagus cuniculus
Procedure: (§1) Briefly, the technique involves high-pressure perfusion of the stomach in live animal with oxygenated PBS, stripping and mincing the mucosa followed by 2-step proteolytic digestion at 37° C., first with a mixture of protease (0.1 mg/ml) and pronase (1 mg/ml) for 15 min and then the pellet obtained therefrom with collagenase (1 mg/ml) for 30 min. The washed cell pellet containing majority of the gastric cells was layered on top of a two-step gradient of Nycodenz (density 1.05 and 1.075 g/ml) and centrifuged at 150×g for 10 min. Parietal cells enriching in between density of 1.05 and 1.075 interface were collected, washed 3 times with respiratory medium and used for the study. The PC preparations were nearly 90% pure and viable.
(§2) The [^14C]-aminopyrine (115 μCi/mM) was added to the suspension at a concentration of 0.1 mCi/ml, and incubation was continued for another 10 min. One-milliliter aliquots of such PC suspension (˜5×10^6 cells) were further incubated in the presence and the absence of histamine (0.1 mM) for 20 min at 37° C. with slow shaking and oxygen top gassing. At the end of the incubation, the PC suspensions were centrifuged, supernatant carefully aspired off and the pellets solubilized in scintillation fluid containing Triton X-100. The resulting solution was counted in a liquid scintillation counter. The aminopyrine accumulation was determined as the ratio of intra- to extracellular aminopyrine according to Mazzeo et al. (A R Mazzeo, J Nandi & R A Levine, Am. J. Physiol. 1988, 254, G57).

[2] = test system: cold restraint stress ulcer in rats; test: Cold restraint stress induced ulceration; assay type: in vivo, rat; details: for protection of ulceration induced by cold restraint stress: 50 mg/kg body weight
Procedure: Adult rats of either sex, weighing about 200 g were fasted for 24 h with free access to water. Compound 4 (in 0.4% hydroxypropylmethylcellulose, HPMC) were administered 45 min before immobilizing the animals. The rats were immobilized in the restraint cage at 4 °C for 4 h and were sacrificed immediately after the restraint period according to the method of Senay and Levine (E C Senay & R J Levine, Proc. Soc. Exp. Biol. Med. 1967, 124, 1221). The abdomen was cut opened, stomach taken out and incised along the greater curvature to observe the gastric lesions. The ulceration was rated and the ulcer index (UI) scored as described in Wagner et al. (K Wagner, J Nandi, R L King & R A Levine, Dig. Dis. Sci. 1995, 40, 134), the effect of compound 4 being expressed graphically as a function of ulcer index and the result was further expressed as the percent protection of the ulcer formation in comparison to the untreated control group (FIG. 4).

[3] = test system: indomethacin-induced ulcer in rat; test: Indomethacin-induced ulcer in rat; assay type: in vivo; details: for protection of indomethacin induced ulcer formation: p.o. 45 min before indomethacin 15 mg/kg p.o.
Procedure: The animals were kept fasting for 24 h before initiating the experiment, drinking water being available ad libitum. The animals were allotted to three groups, each group comprising of six rats. […] Six hours following the administration of indomethacin, the animals were killed, stomachs removed and opened along the greater curvature.

H^+,K^+-ATPase = H^+,K^+-ATPase (Sus scrofa, UniProt P19156); test: H+,K+-ATPase (gastric proton pump) inhibition in pig gastric membranes; assay type: biochemical; details: for IC50: read-out: calculated IC50, H^+,K^+-ATPase
Procedure: Pig gastric membranes enriched in apical and tubulovesicular membranes were prepared as described in the literature (S Bandopadhyay, P K Das, M V Wright, J Nandi, D Bhattacharya & T K Ray, J. Biol. Chem. 1987, 262, 5664). The fundic mucosal regions of pig stomach were desquamated and scrapped to collect oxyntic cell-riched fractions. The homogenized tissue was centrifuged at 5000×g for 8 min, the supernatant was layered over 37% sucrose and centrifuged at 100,000×g for 4½ h. The major membrane band appeared in the interface was collected, diluted with homogenizing buffer and recentrifuged at 110,000×g for 90 min. The pellet containing H^+,K^+-ATPase rich apical and tubulovesicular membranes was suspended in appropriate buffer and stored at −80° C. for use as the source of enzyme.
The H^+,K^+-ATPase activity was measured at 37° C. in a 1 ml reaction mixture containing 2 mM MgCl2, 2 mM ATP, 10 mM PIPES (pH 6.8), 20 mM KCl and 10-15 μg membrane protein. […] After incubation for 10 min, the reaction was terminated by addition of 1 ml ice-chilled TCA (14%).
K^+-stimulated activity, referred to as H^+,K^+-ATPase, was calculated as the difference between the activity in presence of Mg^+2 plus K^+ and basal activity (Mg^+-ATPase) in presence of Mg^+2 alone. […] The liberated inorganic phosphate was quantitated according to a reported procedure (H Sanui, Anal. Biochem. 1974, 60, 489) and the effects of 4 and 5 were assessed. The effects are quantitated in terms of percent inhibition of H^+,K^+-ATPase activity, and compared with that of omeprazole.

Swiss albino mice = test: Single-dose acute toxicity evaluation; assay type: in vivo; details: 1 g/kg body weight orally, 15 days observation
Source text: The Compound 4 was checked for mortality of the Swiss albino mice. Five animals of Swiss albino mice strain were used for this purpose. The dosage up to 1 g/kg body weight was given orally per mice and the animals kept up to 15 days under observation. It was observed that the mice were not affected at the dose level of 1 g/kg body weight of Compound 4.

[4] = test system: rabbit gastric parietal cells; test: Histamine-stimulated acid secretion (aminopyrine uptake) in gastric parietal cells; assay type: cell-based; details: histamine 0.1 mM
Procedure: as §1, §2

Sequence of H^+,K^+-ATPase (P19156 whole entry): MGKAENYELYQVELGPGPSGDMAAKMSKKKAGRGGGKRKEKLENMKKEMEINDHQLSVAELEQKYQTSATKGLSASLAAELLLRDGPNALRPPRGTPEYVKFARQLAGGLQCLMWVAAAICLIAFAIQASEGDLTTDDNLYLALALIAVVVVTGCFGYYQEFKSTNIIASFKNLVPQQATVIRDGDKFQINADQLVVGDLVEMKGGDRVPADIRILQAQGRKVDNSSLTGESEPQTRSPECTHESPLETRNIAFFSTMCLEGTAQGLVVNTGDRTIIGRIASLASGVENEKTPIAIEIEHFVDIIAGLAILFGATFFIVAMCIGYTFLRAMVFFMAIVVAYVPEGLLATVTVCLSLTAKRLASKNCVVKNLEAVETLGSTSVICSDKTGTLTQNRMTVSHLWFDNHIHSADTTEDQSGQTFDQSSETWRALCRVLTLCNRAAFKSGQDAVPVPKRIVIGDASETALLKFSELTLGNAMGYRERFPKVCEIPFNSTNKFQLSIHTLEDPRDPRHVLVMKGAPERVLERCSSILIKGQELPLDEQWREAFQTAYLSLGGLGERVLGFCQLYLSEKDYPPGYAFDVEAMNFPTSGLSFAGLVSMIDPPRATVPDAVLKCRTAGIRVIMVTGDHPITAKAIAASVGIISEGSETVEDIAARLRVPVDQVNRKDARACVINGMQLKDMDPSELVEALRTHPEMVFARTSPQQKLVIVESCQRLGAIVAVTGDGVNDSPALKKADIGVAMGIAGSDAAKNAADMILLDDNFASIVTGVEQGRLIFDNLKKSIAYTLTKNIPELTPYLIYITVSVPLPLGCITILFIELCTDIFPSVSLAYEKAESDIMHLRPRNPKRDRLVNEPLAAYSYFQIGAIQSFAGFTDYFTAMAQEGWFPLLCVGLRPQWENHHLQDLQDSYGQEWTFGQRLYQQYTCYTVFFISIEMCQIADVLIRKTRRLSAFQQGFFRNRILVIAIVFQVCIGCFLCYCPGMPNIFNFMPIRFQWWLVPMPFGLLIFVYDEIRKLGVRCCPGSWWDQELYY
Sequence of H^+,K^+-ATPase (P18434 whole entry partner): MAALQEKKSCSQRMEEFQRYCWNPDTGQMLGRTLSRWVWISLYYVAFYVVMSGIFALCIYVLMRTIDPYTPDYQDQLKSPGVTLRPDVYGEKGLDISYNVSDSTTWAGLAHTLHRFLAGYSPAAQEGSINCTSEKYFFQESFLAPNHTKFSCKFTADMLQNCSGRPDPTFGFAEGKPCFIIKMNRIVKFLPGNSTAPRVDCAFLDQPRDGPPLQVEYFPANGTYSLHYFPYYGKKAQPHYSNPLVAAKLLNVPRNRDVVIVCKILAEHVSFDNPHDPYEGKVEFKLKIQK

SMILES: CN/C(=N/CCSCc1nc[nH]c1C)NC#N [Cimetidine, reference compound]
inhibition of acid output (pylorus-ligated rats; 50 mg/kg): ~80%
inhibition at 200 µM ([1]; 200 μM): ~10%
protection of ulceration induced by cold restraint stress [2]: 86%

inhibition at 3 µM (H^+,K^+-ATPase; concentration 3 μM): 20%
inhibition at 30 µM (H^+,K^+-ATPase; concentration 30 μM): 80%
inhibition of H^+,K^+-ATPase (H^+,K^+-ATPase; concentration range 3 μM and 30 μM): 20-80%
potency relative to 4 (H^+,K^+-ATPase) (H^+,K^+-ATPase; from IC50 values): about three times more potent than 4
IC50 (H^+,K^+-ATPase): ~6 µM
SMILES: COc1ccc2[nH]c([S+]([O-])Cc3ncc(C)c(OC)c3C)nc2c1 (stereo not shown) [Omeprazole, 5-methoxy-2-[(4-methoxy-3,5-dimethyl-2-pyridinyl)-methyl]sulfinyl-1H-benzimidazole, reference compound]
protection of indomethacin induced ulcer formation [3]: ~90%
inhibition at 20 µM ([1]; 20 μM): 80 to 90%

SMILES: CC(=O)NC1=C(C=O)CC2C3CC=C4CC(OC(C)=O)CCC4(C)C3CCC12C (stereo not shown) [Compound 4, 3-acetoxy-17-acetamido-16-formyl-androst-5,17-diene]
anti ulcer activity in indomethacin-induced ulcer model (in words) ([3]; 10-50 mg/kg b.w.): potent anti ulcer activity
protection of indomethacin induced ulcer formation [3]: ~75%
inhibition of acid output (pylorus-ligated rats; 50 mg/kg): ~33%
inhibition of acid output (pylorus-ligated rats; 50-100 mg/kg, oral): ~30%
mortality and behavioral abnormality, single-dose acute toxicity (Swiss albino mice): No mortality and behavioral abnormality; also recorded: did not show acute toxicity
inhibition at 300 µM ([1]; 300 μM (highest concentration)): ~10%
inhibition of H^+,K^+-ATPase (in words) (H^+,K^+-ATPase): dose dependent
nature of inhibition of H^+,K^+-ATPase (H^+,K^+-ATPase): irreversible
Observation (nature of inhibition) (H^+,K^+-ATPase; 10 μM, different protein to inhibitor ratio): Irreversible
Observation (nature of inhibition) (H^+,K^+-ATPase; 10 μM, function of preincubation time): Irreversible
inhibition at 10 µM (H^+,K^+-ATPase; 10 μM, preincubation time 0 min, read-out: % Inhibition of H^+, K^+-ATPase): 2%
inhibition at 10 µM (H^+,K^+-ATPase; 10 μM, preincubation time 30 min, read-out: % Inhibition of H^+, K^+-ATPase): 56%
inhibition at 10 µM (H^+,K^+-ATPase; 10 μM, protein concentration 5 μg/assay, read-out: % Inhibition of H^+, K^+-ATPase): 75%
inhibition at 10 µM (H^+,K^+-ATPase; 10 μM, protein concentration 20 μg/assay, read-out: % Inhibition of H^+, K^+-ATPase): 57%
inhibition at 1 µM (H^+,K^+-ATPase; concentration 1 μM): 7%
inhibition at 5 µM (H^+,K^+-ATPase; concentration 5 μM): 20%
inhibition at 10 µM (H^+,K^+-ATPase; concentration 10 μM, read-out: % Inhibition H^+, K^+-ATPase): 47%
inhibition at 100 µM (H^+,K^+-ATPase; concentration 100 μM): 75%
IC50 (H^+,K^+-ATPase): 18 µM
protection of ulceration induced by cold restraint stress [2]: 54%
antiulcer activity in cold restraint stress ulcer model (in words) ([2]; 50 mg/kg body wt.): potent antiulcer activity
IC50 ([4]; Oryctolagus cuniculus, read-out: IC50, inhibition of histamine-stimulated acid secretion): ~130 µM
activity compared with cimetidine in inhibiting histamine-stimulated secretion [4]: IC50 value comparable to cimetidine; also recorded: almost equiactive as compared with cimetidine

SMILES: CC(=O)O[C@H]1CC[C@@]2(C)C(=CC[C@@H]3[C@@H]2CC[C@]2(C)c4nc(Cl)ccc4C[C@@H]32)C1 [Compound 5, 3-acetoxy-2′-chloro-5-androsteno[17,16-b]pyridine]
inhibition of H^+,K^+-ATPase (in words) (H^+,K^+-ATPase): nominal
% Inhibition H^+, K^+-ATPase (H^+,K^+-ATPase; concentration 1 μM): 2%
% Inhibition H^+, K^+-ATPase (H^+,K^+-ATPase; concentration 10 μM): 37%
% Inhibition H^+, K^+-ATPase (H^+,K^+-ATPase; concentration 100 μM): 57%
